Data taken from patent US12138273B2 (Propella Therapeutics, Inc., priority 2019, dated 2024).

Assays:
[1] = Beagle, dog, in vivo
[2] = dog, in vivo
Excerpt: An additional study was done using dogs as the animal model instead of rats.

Structure (SMILES) | mean AUCINF following IM administration, corrected for dose and time units [1] | irritation at the injection site [2] | % F ([2]; male) | measurable blood levels out to ([2]; male) | AUCINF/Dose ([2]; male, im)
C[C@]12CC[C@H](O)CC1=CC[C@@H]1[C@@H]2CC[C@]2(C)C(c3cccnc3)=CC[C@@H]12 [abiraterone, (3β)-17-(pyridin-3-yl) androsta-5, 16-dien-3-ol] | 105 ng·h/mL | – | – | – | –
CC(=O)O[C@H]1CC[C@@]2(C)C(=CC[C@@H]3[C@@H]2CC[C@]2(C)C(c4cccnc4)=CC[C@@H]32)C1 [abiraterone acetate] | – | irritating to the dogs at the injection site | 61.7% | 504 h | 329
